Results taken from patent publication US5817669A, “Compounds, processes for the preparation thereof and anti-tumor agents” (Dainippon Pharmaceutical Co., Ltd., priority 1994, dated 1998).
≈ marks a conversion by molar mass, not a printed value. Structures can show the parent of a compound that is named as a salt. Where two headings read alike, the source gives them in different places.

Tests used:
[1] = tested on: C33A human cervix cancer; test: In vitro anti-tumor activity against C-33A human cervix cancer (MTT); format: cell-based; details: C-33A, 72 h, MTT, read-out: IC50
Method: (§1) A culture medium containing 500 to 2,000 human cancer cells was put in an amount of 0.1 ml in each well of 96-well plate, and the cells were cultured for 20 hours under a condition of 37° C. and 5% carbon dioxide gas in air. After the culturing, a solution of test compounds of predetermined concentration was added, and then, the cells were cultured for further 72 hours. After the culturing, an MTT (5 mg/ml) solution was added in an amount of 0.01 ml in the respective wells, and the cells were cultured for further 4 hours. The supernatants of the culture medium were removed by suction, and then, 0.1 ml of dimethyl sulfoxide was put in respective well to dissolve the formed formazan, and, moreover, 0.1 ml of dimethyl sulfoxide was added.

[2] = tested on: A427 human lung cancer; test: In vitro anti-tumor activity against A-427 human lung cancer (MTT); format: cell-based; details: A-427, 72 h, MTT, read-out: IC50
Method: as §1

[3] = tested on: HMV2 human melanoma; test: In vitro anti-tumor activity against HMV-2 human melanoma (MTT); format: cell-based; details: HMV-2, 72 h, MTT, read-out: IC50
Method: as §1

[4] = tested on: murine P388 lymphocytic leukemia cells; test: Increases in life span of mice implanted with murine P388 lymphocytic leukemia cells; format: in vivo, SLC: BDF1 mice; details: Mus musculus, P388, ip, 720 h, ip
Method: 1×10^6 murine P388 lymphocytic leukemia cells were intraperitoneally implanted in each of SLC: BDF1 mice (8 to 10 weeks old, female, 7 animals per one group). A test compound (drug) was either dissolved in 0.1 N--NaOH or suspended in 0.4% carboxymethylcellulose solution, and the resultant solution or suspension was diluted with distilled water or 0.4% carboxymethylcellulose solution so as to give predetermined concentrations for administration. The obtained solution was intraperitoneally (ip) administered twice, namely on the day following the implantation (1st day) and the 5th day, each 0.2 ml. The life and death of the mice were observed over a period of 30 days, and the median survival time (hereinafter referred to as MST) was determined for each group, and, thus, the increase in life span (ILS; %) was calculated according to the following equation:
ILS (%)=[{(MST of the test group)/(MST of the control group)}-1]×100
Drug effect was judged in the following manner, according to the criterion of U.S. National Cancer Institute (NCI):
ILS=75% or higher: ++ (remarkably effective);
20 to 74%: + (effective);
19% or lower: - (ineffective)

[5] = tested on: colon 26 murine tumor cells; test: Tumor growth inhibition effect on colon 26 murine tumor cells implanted mice; format: in vivo, SLC: CDF1 mice; details: Mus musculus, Colon 26, 504 h, ip, days 1-9, day 21 or 22, read-out: Tumor growth inhibition rate IR (%)
Method: A 2% brei of colon 26 murine tumor cells was intracutaneously implanted each 0.1 ml in the abdominal part of SLC: CDF1 female mice (7 to 9 weeks old, 7 animals per one group). […] The obtained solutions were intraperitoneally (ip) administered each 0.2 ml once a day, from the day (1st day) following the implantation to the 9th day. On the 21st or 22nd day after the implantation, tumor weight was estimated from tumor diameters, and thus, the tumor growth inhibition rate (IR %) of the drug administered group in comparison with the control group was calculated according to the following equation. IR (%)=[1-{(MTW in the treated group)/(MTW in the control group)}]×10 0 MTW: mean tumor weight

[6] = tested on: WiDr human colorectal cancer; test: In vitro anti-tumor activity against WiDr human colorectal cancer (MTT); format: cell-based; details: 72 h, MTT, read-out: IC50
Method: as §1

[7] = tested on: MKN45 human stomach cancer; test: In vitro anti-tumor activity against MKN45 human stomach cancer (MTT); format: cell-based; details: MKN-45, MKN45, 72 h, MTT, read-out: IC50
Method: as §1

[8] = Acute toxicity; details: mouse, in vivo, mice, 14th day
Method: Solutions of test compounds in predetermined concentrations were administered (0.1 ml/10 g body weight) to female BALB/c CrSlc mice (5 to 10 animals per one group, 10 weeks old) respectively, and, thus, LD50 values were calculated from the mortalities of the mice on the 14th day after the administration.

[9] = tested on: KB human nasopharynx cancer; test: In vitro anti-tumor activity against KB human nasopharynx cancer (MTT); format: cell-based; details: KB, 72 h, MTT, read-out: IC50
Method: as §1

[10] = tested on: AZ521 human stomach cancer; test: In vitro anti-tumor activity against AZ-521 human stomach cancer (MTT); format: cell-based; details: AZ-521, 72 h, MTT, read-out: IC50
Method: as §1

[11] = tested on: murine P388 lymphocytic leukemia cells; test: In vitro anti-tumor activity against murine P388 lymphocytic leukemia cells (MTT, 72 h); format: cell-based; details: Mus musculus; murine P388 cells, 72 h, MTT; read-out: IC50 (50% proliferation inhibitory concentration)
Method: Test compounds were tested for anti-tumor activity according to MTT [3-(4,5-dimethylthiazol-2-yl)-2,5-diphenyltetrazolium bromide] method, using murine P388 lymphocytic leukemia cells. […] The culture medium was centrifuged (4° C., 2,000 rpm for 20 minutes), and thus, the supernatants were removed by suction. Then, 0.1 ml of dimethyl sulfoxide was put in each well to dissolve the formed formazan, and, subsequently, another 0.1 ml of dimethyl sulfoxide was added. The absorbance (OD) of each of the obtained solutions was measured by use of Multiskan Bichromatic (main wavelength 570 nm, sub-wavelength 690 nm). […] IC50 :μg/ml) were calculated by the least squares method.

[12] = Solubility
[13] = NCI criterion, read-out: Evaluation
[14] = days 1 and 5, in solution, read-out: ILS (%) (in solution)
[15] = days 1 and 5, in suspension, read-out: ILS (%) (in suspension)

SMILES	IC50 [1]	IC50 [2]	IC50 [3]	ILS at 1.56 mg/kg [4, 13]	ILS at 3.13 mg/kg [4, 13]	ILS at 6.25 mg/kg [4, 13]	ILS at 12.5 mg/kg [4, 13]	ILS at 1.56 mg/kg [4, 14]	ILS at 3.13 mg/kg [4, 14]	ILS at 3.13 mg/kg [4, 15]	ILS at 6.25 mg/kg [4, 14]	ILS at 12.5 mg/kg [4, 14]	ILS at 12.5 mg/kg [4, 15]	IC50 [6]	IC50 [7]	IC50 [9]	IC50 [10]	IC50 [11]	other results
CO[C@@H]1CN(c2ccc3c(=O)c(C(=O)O)cn(-c4nccs4)c3n2)C[C@H]1N (relative stereo) [Compound 2]	0.314 µg/mL (≈ 0.81 µM)	0.169 µg/mL (≈ 0.436 µM)	0.382 µg/mL (≈ 0.986 µM)	20 to 74%	> 75%	> 75%	> 75%	50%	88%	63%	100%	125%	138%	1.88 µg/mL (≈ 4.85 µM)	0.579 µg/mL (≈ 1.49 µM)	0.309 µg/mL (≈ 0.798 µM)	0.331 µg/mL (≈ 0.854 µM)	0.0178 µg/mL (≈ 0.0459 µM)	ILS at 25 mg/kg [4, 13]: > 75%; ILS at 50 mg/kg [4, 13]: > 75%; ILS at 25 mg/kg [4, 14]: 213%; ILS at 50 mg/kg [4, 14]: > 275%; ILS at 50 mg/kg [4, 15]: 238%; inhibition in vivo at 12.5 mg/kg ([5]; 12.5 mg/kg once a day): 79%; LD50 at 336 h ([8]; Intraperitoneal administration (ip)): 135 mg/kg
CN[C@@H]1CN(c2ccc3c(=O)c(C(=O)O)cn(-c4nccs4)c3n2)C[C@H]1C (relative stereo) [Compound 5]	0.106 µg/mL (≈ 0.275 µM)	0.0927 µg/mL (≈ 0.24 µM)	0.0944 µg/mL (≈ 0.245 µM)	20 to 74%	> 75%	> 75%	> 75%	50%	113%	88%	150%	188%	188%	0.218 µg/mL (≈ 0.566 µM)	0.0978 µg/mL (≈ 0.254 µM)	0.0805 µg/mL (≈ 0.209 µM)	0.0433 µg/mL (≈ 0.112 µM)	0.0117 µg/mL (≈ 0.0304 µM)	inhibition in vivo at 1.56 mg/kg ([5]; 1.56 mg/kg once a day): 78%; LD50 at 336 h ([8]; Intravenous administration (iv)): 66.7 mg/kg
COC1CN(c2ccc3c(=O)c(C(=O)O)cn(-c4nccs4)c3n2)CC1N(C)C(=O)[C@H](C)N (stereo partly drawn) [Compound 1-1-3, 7-[trans-3-(N-L-alanylmethylamino)-4-methoxy-1-pyrrolidinyl]-1,4-dihydro-4-oxo-1-(2-thiazolyl)-1,8-naphthyridine-3-carboxylic acid hydrochloride]	–	–	–	–	–	–	–	–	–	–	–	–	–	–	–	–	–	–	solubility ([12]; 0.1 m phosphate buffer, pH 7.2, aqueous buffer): > 234 mg/mL; solubility relative to that of Compound 1-1 and 3 ([12]; relative to Compound 1-1 and 3 (Z is hydrogen)): ≥ 10 times; solubility ([12]; water): > 98.7 mg/mL
